Legend:
Format in all cases: cell-based
[1] = system: inner membrane of E. coli ATCC 25922; assay: Enzyme assay, inner membrane leakage (β-galactosidase release, ONPG); settings: 1.5 mM ONPG
Description: (§1) It was observed, through an enzyme assay, whether the sensitizing peptide destroyed the outer and inner membranes of Gram-negative bacteria. In the presence of the sensitizing peptide, it was observed whether in a case where 1.5 mM ONPG was used together therewith, β-galactosidase was released from E. coli ATCC 25922 for the inner membrane, and whether in a case where 200 μM CENTA was used together therewith, β-lactamase was released from E. coli NDM-1 for the outer membrane.
To determine leakage of the inner membrane, release of the cytoplasmic enzyme β-galactosidase was evaluated. The bacteria were diluted to OD600=1 and 1.5 mM ONPG (O-nitrophenyl-β-D-galactopyranoside) was added. Absorbance of a product of enzyme reaction was measured at 420 nm. The other procedures were carried out in the same manner as in the experiment for outer membrane destruction.

[2] = system: outer membrane of E. coli NDM-1; assay: Enzyme assay, outer membrane leakage (β-lactamase release, CENTA); settings: peptide 0.63 or 1.30 uM, 37° C., 1 h; 200 μM CENTA
Description: as §1
Specifically, to determine leakage of the outer membrane, activity of the β-lactamase released from the outer membrane was evaluated. New Delhi metallo-β-lactamase-1 (NDm-1)-producing E. coli cells were washed three times with DPBS and suspended in the same buffer. The cells were diluted to an OD600 of 0.2 and treated with the peptide at a concentration of 0.63 or 1.30 uM at 37° C. for 1 h. After centrifugation, the supernatant was incubated with 200 μM CENTATM β-lactamase substrate at 37° C. for 1 hour. An optical density was obtained by measuring absorbance of a product of enzyme reaction at 405 nm using a microplate reader (Molecular Devices Co., Menlo Park, Calif.).
The results are illustrated in FIGS. 12A and 12B. The y-axis is absorbance measured at 405 nm, and higher absorbance is observed as a higher amount of β-lactamase is released due to destruction of the membrane.

[3] = system: human red blood cells (hRBC); assay: Hemolysis assay; settings: hRBCs, 37° C., 4 hours
Description: To identify toxicity of the peptides, human red blood cell (hRBC) hemolytic activity assay (hemolysis assay) was performed.
Specifically, percent hemolysis of human red blood cells (hRBC) was determined by comparing the cells incubated in 100% deionized water (DW) as a positive control and peptide-free PBS as a negative control. hRBCs were washed 3 times with PBS using centrifugation at 500 g for 5 min, and 5% (v/v) hematocrit was suspended in PBS buffer (Hyclone). The peptide was diluted using 2-fold serial dilution with PBS, and hRBCs were added at 2.5×10^8 cells to each well. The sample was incubated at 37° C. for 4 hours. After centrifugation at 1400 rpm for 5 minutes, 180 μL of the supernatant was transferred to a transparent flat-bottom 96-well plate. An amount of hemoglobin released by the peptide was determined by measuring absorbance at 405 nm using an EPOCH2 microplate reader (BioTek, Winooski, USA).
Hemolytic activity (%)=(absorbance of sample−absorbance of PBS)/(absorbance of 100% DW−A405 of PBS)×100

## CC[C@H](C)[C@H](NC(=O)CN)C(=O)NCC(=O)N[C@@H](C)C(=O)N[C@H](C(=O)N[C@@H](CC(C)C)C(=O)N[C@@H](CCCCN)C(=O)N[C@H](C(=O)N[C@@H](CC(C)C)C(=O)N[C@H](C(=O)N[C@H](C(=O)NCC(=O)N[C@@H](CC(C)C)C(=O)N1CCC[C@H]1C(=O)N[C@@H](C)C(=O)N[C@@H](CC(C)C)C(=O)N[C@H](C(=O)N[C@@H](CO)C(=O)N[C@@H](Cc1c[nH]c2ccccc12)C(=O)N[C@H](C(=O)N[C@@H](CCCCN)C(=O)N[C@@H](CCCNC(=N)N)C(=O)N[C@@H](CCCCN)C(=O)N[C@@H](CCCNC(=N)N)C(=O)N[C@@H](CCC(N)=O)C(=O)N[C@@H](CCC(N)=O)C(N)=O)[C@@H](C)CC)[C@@H](C)CC)[C@@H](C)O)[C@@H](C)O)C(C)C)C(C)C [melittin, reference compound]
[1]
  destruction of inner membrane (β-galactosidase release): destroyed both the inner and outer membranes of bacteria
[2]
  destruction of outer membrane (β-lactamase release): destroyed both the inner and outer membranes of bacteria
[3]
  hemolytic activity: exhibited hemolysis of hRBCs starting from low concentrations
